Assay results as given in patent US9546157B2, “Asymmetric piperidinyl-substituted ureas as medicines” (Helsinn Healthcare SA, priority 2014, dated 2017).

Columns and labels:
[1] = Metabolic Stability (M = Mouse); format: in vitro ADME
C57BL/6J mice = experiment: Food intake test in mouse (GHSR1a antagonists); format: in vivo; details: for inhibition in vivo at 10 mg/kg / inhibition in vivo at 30 mg/kg: Mus musculus
Procedure: Male C57BL/6J mice, 18-22 g body weight, were fasted overnight (16 h before compound administration) and placed in a regular light dark cycle (6:00-18:00 light/18:00-6:00 dark). After 1 wk acclimation, animals were sorted into two groups (n=6 each, 2 per cage) based on body weight. Animals in group one were be treated with vehicle and animals in group 2 were treated with the test agent (n=6 for each group). The cumulative food intake was evaluated at 1, 2, 4, 8 and 24 hrs after drug or vehicle treatment. Food intake was measured by subtracting uneaten food from the initial premeasured food.

GHSR1a [2] = target: T1, GHSR1a (Homo sapiens, UniProt Q92847); experiment: Calcium FLIPR assay, GHSR-1a agonism; format: cell-based; parameters: Emax: unit not given here; details: HEK293/GHSR1a cells
T1 construct: expressed in transfected cells; host or cells: HEK293
Method in brief: (§1)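 Cells stably carrying human GHSR1a were plated a day ahead, dye-loaded, then given test compound. Agonist activity was the calcium rise over 2 minutes after compound addition at t=20 sec; antagonist activity was the reduction of the response to 10 nM ghrelin added together with compound.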

[3] = Metabolic Stability (H = Human); format: in vitro ADME
GHSR1a [4] = target: T1, GHSR1a; experiment: Calcium FLIPR assay, GHSR-1a antagonism (reduction of ghrelin response); format: cell-based; details: HEK293/GHSR1a cells, ghrelin 10 nM
Method in brief: as §1

[5] = PO 10 mg/kg + ANA (ANAM) 30 mg/kg mice

T1 sequence (Q92847 whole entry): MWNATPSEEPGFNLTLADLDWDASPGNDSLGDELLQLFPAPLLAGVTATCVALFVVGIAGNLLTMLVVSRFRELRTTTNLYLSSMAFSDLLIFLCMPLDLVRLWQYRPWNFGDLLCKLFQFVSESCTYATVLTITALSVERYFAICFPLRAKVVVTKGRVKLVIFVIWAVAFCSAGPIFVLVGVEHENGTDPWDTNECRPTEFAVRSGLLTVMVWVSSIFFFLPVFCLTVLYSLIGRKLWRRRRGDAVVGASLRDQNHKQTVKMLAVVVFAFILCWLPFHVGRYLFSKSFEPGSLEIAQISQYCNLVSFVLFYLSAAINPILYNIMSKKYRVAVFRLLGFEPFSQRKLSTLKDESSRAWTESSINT

| SMILES | Metabolic Stability M [1] | EC50 (GHSR1a [2]) [nM] | Emax (GHSR1a [2]) | Metabolic Stability H [3] | IC50 (GHSR1a [4]) [nM] | also measured |
| --- | --- | --- | --- | --- | --- | --- |
| CC(NC(=O)N(C)C1CCN(C)CC1)c1ccc(-c2cccs2)c(Cl)c1Cl (single isomer, unassigned) [Compound H0563, 3-(1-(2,3-dichloro-4-(thiophen-2-yl)phenyl)ethyl)-1-methyl-1-(1-methylpiperidin-4-yl)urea] | Medium H Medium M | 3 | 2100 | Medium H Medium M | – | inhibition in vivo at 10 mg/kg (C57BL/6J mice; ip, 1 h, i.p. 10 mg/kg): 65% |
| C#Cc1ccc(C(C)NC(=O)N(C)C2CCN(C)CC2)c(Cl)c1Cl (single isomer, unassigned) [Compound H0677, 3-(1-(2,3-dichloro-4-ethynylphenyl)ethyl)-1-methyl-1-(1-methylpiperidin-4-yl)urea] | Medium | > 30000 | – | High | 5 | Mouse Food Intake, result in words (C57BL/6J mice; PO, dose not given): NSE |
| C#Cc1ccc(C(C)NC(=O)N(C)C2CCN(C)CC2)c(Cl)c1Cl (single isomer, unassigned) [Compound H0678, 3-(1-(2,3-dichloro-4-ethynylphenyl)ethyl)-1-methyl-1-(1-methylpiperidin-4-yl)urea] | Medium H Medium M | > 30000 | – | Medium H Medium M | 55 | inhibition in vivo at 10 mg/kg (C57BL/6J mice; ip, 1 h, i.p. 10 mg/kg): 78%; Mouse Food Intake, result in words (C57BL/6J mice; PO, dose not given): no effect |
| CN1CCC(N(O)C(=O)NC(CC2CC2)c2ccc(-c3cnccn3)c(Cl)c2Cl)CC1 (single isomer, unassigned) [Compound H0782, 3-(2-cyclopropyl-1-(2,3-dichloro-4-(pyrazin-2-yl)phenyl)ethyl)-1-hydroxy-1-(1-methylpiperidin-4-yl)urea] | – | 6 | 1923 | – | 5 | inhibition in vivo at 10 mg/kg (C57BL/6J mice; ip, 1 h, i.p. 10 mg/kg): 93% |
| CC(NC(=O)N(C)C1CCN(C)CC1)c1ccc(C#CC2CC2)c(Cl)c1Cl (single isomer, unassigned) [Compound H0818, 3-(1-(2,3-dichloro-4-(cyclopropylethynyl)phenyl)ethyl)-1-methyl-1-(1-methylpiperidin-4-yl)urea] | – | 3.5 | 1915 | – | 1.7 | inhibition in vivo at 30 mg/kg (C57BL/6J mice; po, 4 h, 30 mg/kg PO fasted mice): 22% |
| CC(NC(=O)N(C)C1CCN(C)CC1)c1ccc(C#CC2CC2)c(Cl)c1Cl (single isomer, unassigned) [Compound H0819, 3-(1-(2,3-dichloro-4-(cyclopropylethynyl)phenyl)ethyl)-1-methyl-1-(1-methylpiperidin-4-yl)urea] | – | 140 | 1419 | – | 65 | Mouse Food Intake, result in words (C57BL/6J mice; 30 mg/kg PO fasted mice): 30 mg/kg PO fasted mice NSE |
| C[C@H](NC(=O)N(C)C1CCN(C)C1)c1ccc(-c2cnccn2)c(Cl)c1Cl (single isomer, unassigned) [Compound H0862] | medium | > 30000 | – | High | 3 | Mouse Food Intake, result in words (C57BL/6J mice; PO (10 mg/kg) + ANA, mice, ANA dose not given): PO (10 mg/kg) + ANA: no activity in mice |
| CC(NC(=O)N(C)C1CCN(C)CC1)c1ccc(Cl)c(Cl)c1Cl (centres unmarked) [Compound H0381, 1-methyl-1-(1-methylpiperidin-4-yl)-3-(1-(2,3,4-trichlorophenyl)ethyl)urea] | Meidum | > 30000 | – | Medium | 12 | Mouse Food Intake, result in words (C57BL/6J mice; i.p., dose not given): IP: No effect |
| CC(NC(=O)N(C)C1CCN(C)CC1)c1ccc(C2CC2)c(Cl)c1Cl (centres unmarked) [Compound H0494, 3-(1-(2,3-dichloro-4-cyclopropylphenyl)ethyl)-1-methyl-1-(1-methylpiperidin-4-yl)urea] | High | 66 | 2996 | Medium | 52 | Mouse Food Intake, result in words (C57BL/6J mice; i.p., dose not given): No Effect |
| CC(NC(=O)N(C)C1CCN(C)CC1)c1ccc(-c2cccnc2)c(Cl)c1Cl (centres unmarked) [Compound H0496, 3-(1-(2,3-dichloro-4-(pyridin-3-yl)phenyl)ethyl)-1-methyl-1-(1-methylpiperidin-4-yl)urea] | High | > 30000 | – | Medium | 10 | Mouse Food Intake, result in words (C57BL/6J mice; i.p. 10 mg/kg): NSE (10 mg/kg) |
| CC(NC(=O)N(C)C1CCN(C)CC1)c1ccc(-c2ccncc2)c(Cl)c1Cl (centres unmarked) [Compound H0497, 3-(1-(2,3-dichloro-4-(pyridin-4-yl)phenyl)ethyl)-1-methyl-1-(1-methylpiperidin-4-yl)urea] | Medium H Medium M | > 30000 | – | Medium H Medium M | 24 | Mouse Food Intake, result in words (C57BL/6J mice; i.p. 30 mg/kg): NSE (30 mg/kg) |
| CC(NC(=O)N(C)C1CCN(C)CC1)c1ccc(-c2ccsc2)c(Cl)c1Cl (centres unmarked) [Compound H0498, 3-(1-(2,3-dichloro-4-(thiophen-3-yl)phenyl)ethyl)-1-methyl-1-(1-methylpiperidin-4-yl)urea] | High | > 30000 | – | Medium | 29 | inhibition in vivo at 30 mg/kg (C57BL/6J mice; ip, 1 h, i.p. 30 mg/kg): 76% |
| CC(NC(=O)N(C)C1CCN(C)CC1)c1ccc(-c2cn[nH]c2)c(Cl)c1Cl (centres unmarked) [Compound H0499, 3-(1-(2,3-dichloro-4-(1H-pyrazol-4-yl)phenyl)ethyl)-1-methyl-1-(1-methylpiperidin-4-yl)urea] | Medium H Medium M | > 30000 | – | Medium H Medium M | 12 | Mouse Food Intake, result in words (C57BL/6J mice; i.p. 30 mg/kg): NSE (30 mg/kg) |
| CC(NC(=O)N(C)C1CCN(C)CC1)c1ccc(-c2ccccc2)c(Cl)c1Cl (centres unmarked) [Compound H0509, 3-(1-(2,3-dichloro-[1,1′-biphenyl]-4-yl)ethyl)-1-methyl-1-(1-methylpiperidin-4-yl)urea] | High H High M | 2000 | 1790 | High H High M | 29 | inhibition in vivo at 10 mg/kg (C57BL/6J mice; ip, 1 h, i.p. 10 mg/kg): 66% |
| CC(NC(=O)N(C)C1CCN(C)CC1)c1ccc(-c2cccc(N)c2)c(Cl)c1Cl (centres unmarked) [Compound H0510, 3-(1-(3′-amino-2,3-dichloro-[1,1′-biphenyl]-4-yl)ethyl)-1-methyl-1-(1-methylpiperidin-4-yl)urea] | High H High M | > 30000 | – | High H High M | 14 | inhibition in vivo at 30 mg/kg (C57BL/6J mice; ip, 4 h, i.p. 30 mg/kg): 35% |
| C[C@@H](NC(=O)N(C)C1CCN(C)CC1)c1ccc(-c2cnccn2)c(Cl)c1Cl [Compound H0817, (R)-3-(1-(2,3-dicholoro-4-(pyrazin-2-yl)phenyl)ethyl)-1-methyl-1-(1-methylpiperidin-4-yl)urea] | – | > 30000 | – | – | 94 | Mouse Food Intake, result in words (C57BL/6J mice; 30 mg/kg PO fasted mice): 30 mg/kg PO fasted mice NSE |
| C[C@H](NC(=O)N(C)C1CCN(C)C1)c1ccc(C#CC2CC2)c(Cl)c1Cl (stereo partly drawn) [Compound H0838, 3-((S)-1-(2,3-dichloro-4-(cyclopropylethynyl)phenyl)ethyl)-1-methyl-1-(1-methylpyrrolidin-3-yl)urea] | – | 21 | 1340 | – | 4 | Mouse Food Intake increase, activity up to (C57BL/6J mice; 30 mg/kg PO mice): ≤ 8 h; Mouse Food Intake % increase (C57BL/6J mice; 2 h, 30 mg/kg PO mice): 205% |
| CC(NC(=O)N(C)C1CCN(C)CC1)c1ccc(-c2nccnc2F)c(Cl)c1Cl (centres unmarked) [Compound H0840] | – | > 30000 | – | – | 47 | Mouse Food Intake, result in words (C57BL/6J mice; [5]): PO 10 mg/kg + ANA 30 mg/kg mice: NSE |
| CC(NC(=O)N(C)C1CCN(C)CC1)c1ccc(-c2csc(C3CC3)n2)c(Cl)c1Cl (centres unmarked) [Compound H0841, 3-(1-(2,3-dichloro-4-(2-cyclopropylthiazol-4-yl)phenyl)ethyl)-1-methyl-1-(1-methylpiperidin-4-yl)urea] | – | > 30000 | – | – | 118 | Mouse Food Intake, result in words (C57BL/6J mice; [5]): PO 10 mg/kg + ANAM 30 mg/kg mice: NSE |
